Data published in paper PMC7582656, “The Hirudo Medicinalis Microbiome Is a Source of New Antimicrobial Peptides” (International Journal of Molecular Sciences, 2020).
Values after ≈ are worked out from the molar mass of the structure shown. “Also recorded” adds a separate entry of the source. Where two headings read alike, the source gives them in different places. Where no end group is shown, it is not given here.

Assays:
S. haemolyticus 527 = format: cell-based, Staphylococcus haemolyticus
Experimental: (§1) The minimum inhibitory concentration (MIC) of peptides was determined by the standard microtiter dilution method, as performed previously. Briefly, the MIC was determined by growing the microorganisms in 96-well microtitration plates in the presence of a two-fold serial dilution of the peptides. […] Mueller Hinton broth (MHB, BD Difco, Thermo Fisher Scientific Inc., Waltham, MA, USA) was used for all cultures, including Bacillus subtilis 168HT, Staphylococcus aureus ST 88, Staphylococcus haemolyticus 527 (clinical isolate), and Escherichia coli K12 substr. MG1655 strains. Each experiment was performed in triplicate with positive (melittin (Merck Company Inc., Kenilworth, NJ, USA)) and negative (without peptide) inhibition controls.

McCoy cells [1] = assay: LIVE/DEAD viability/cytotoxicity assay, fluorescent images; format: cell-based, mouse; details: 24 h
Experimental: (§2) The cytotoxicity of peptides towards the mouse fibroblast cell line McCoy was determined via the LIVE/DEAD™ Viability/Cytotoxicity Kit (Thermo Fisher Scientific Inc., Waltham, MA, USA) according to the manufacturer′s recommendations, as performed previously. […] Melittin was used as a negative control, and McCoy cells treated without peptides were used as a positive control. After peptide exposure, cells were washed and then stained with PBS containing calcein AM and ethidium homodimer–1 at concentrations of 0.3 and 1.25 μM, respectively, for 30 min at 37 °C. After staining, the cells were washed twice with PBS. The images were captured using an epifluorescence microscope with the respective filter cubes from 10 occasionally selected fields of view captured for each well with a 20× objective. Images were captured for FITC and TRITC channels. The numbers of cells in both channels were quantified with the ImageJ software (version 1.48; RSB).

E. coli ATCC25922 = details: ref Porto et al. [32]; cited from earlier work
Excerpt: According to numerous studies, the actions of AMPs on bacteria are diverse and appear to be dependent on the target and the peptide concentration. The speed of the antimicrobial effect of different AMPs can vary greatly.

S. aureus ST 88 = format: cell-based, Staphylococcus aureus
Experimental: as §1

B. subtilis 168HT = format: cell-based, Bacillus subtilis
Experimental: as §1

[2] = tested on: E. coli K12 substr MG1655; format: cell-based, Escherichia coli; details: two-fold serial dilution, 96-well plates, Mueller Hinton broth, triplicate
Experimental: as §1

McCoy cells [3] = assay: Cytotoxicity by live/dead assay and lactate dehydrogenase assay together; format: cell-based, mouse; details: 24 and 48 h, peptide at 4x MIC, live/dead fluorescence imaging and LDH assay
Experimental: We applied two techniques: Fluorescence imaging of dead and living cells (live/dead viability/cytotoxicity assay, Table 3, Figure S2) and a colorimetric assay (lactate dehydrogenase assay, Figure S3).
as §2
The cytotoxicity of peptides was also measured by a lactate dehydrogenase (LDH) assay kit (Merck Company Inc., Kenilworth, NJ, USA) according to the manufacturer′s recommendations. Briefly, 100 μL of McCoy cells per well were seeded on 96-well culture plates at a density of 2 × 10^5 cells/mL and incubated for 24 h at 37 °C with peptides at a final concentration equal to 4× MIC. Melittin was used as a negative control, and McCoy cells treated without peptides were used as a positive control. The growth medium without peptides was used as blank absorbance readings. After the peptide treatment, the plate with cells was centrifuged for 10 min at 900 g, and 50 μL of medium from each well was transferred to another plate. Fifty microlitres of the prepared LDH kit solution were added to each well. All manipulations were performed in the dark. The absorbance of the wells was measured after 15 min incubation in the dark at wavelengths of 495 and 690 nm using a Multiscan Ascent microtiter plate reader (Thermo Fisher Scientific Inc., Waltham, MA, USA). The specific absorbance of each sample was calculated according to the equation:Absorbance = A495 nm (Test) − A495 nm (Blank) − A690 nm (Test)
The percentage of cell viability was recalculated according to the control values.

Row | Molecule | MIC (S. haemolyticus 527; S. haemolyticus 527 (clinical isolate), two-fold serial dilution, 96-well plates, Mueller Hinton broth, triplicate) | Cell Viability, % (McCoy cells [1]; McCoy cells, 37 °C, peptide at 4× MIC, calcein AM / ethidium homodimer-1 staining, fluorescent images, mean ± SD (n = 3)) | Time to kill E. coli ATCC25922 (E. coli ATCC25922) | MIC (S. aureus ST 88; S. aureus ST 88 (MRSA), two-fold serial dilution, 96-well plates, Mueller Hinton broth, triplicate) | MIC (B. subtilis 168HT; B. subtilis 168HT, two-fold serial dilution, 96-well plates, Mueller Hinton broth, triplicate) | MIC [2] | Cytotoxicity (in words) (McCoy cells [3]) | Cell Viability, % (McCoy cells [1]; 4 MIC) | MIC (S. aureus ST 88; ST 88) | MIC (B. subtilis 168HT; 168HT) | MIC (S. haemolyticus 527; 527) | Time of lytic effect (E. coli ATCC25922)
1 | CC[C@H](C)[C@H](NC(=O)CN)C(=O)NCC(=O)N[C@@H](C)C(=O)N[C@H](C(=O)N[C@@H](CC(C)C)C(=O)N[C@@H](CCCCN)C(=O)N[C@H](C(=O)N[C@@H](CC(C)C)C(=O)N[C@H](C(=O)N[C@H](C(=O)NCC(=O)N[C@@H](CC(C)C)C(=O)N1CCC[C@H]1C(=O)N[C@@H](C)C(=O)N[C@@H](CC(C)C)C(=O)N[C@H](C(=O)N[C@@H](CO)C(=O)N[C@@H](Cc1c[nH]c2ccccc12)C(=O)N[C@H](C(=O)N[C@@H](CCCCN)C(=O)N[C@@H](CCCNC(=N)N)C(=O)N[C@@H](CCCCN)C(=O)N[C@@H](CCCNC(=N)N)C(=O)N[C@@H](CCC(N)=O)C(=O)N[C@@H](CCC(N)=O)C(N)=O)[C@@H](C)CC)[C@@H](C)CC)[C@@H](C)O)[C@@H](C)O)C(C)C)C(C)C [Melittin, melittin, reference compound] | 5.7 µM (≈ 16.2 µg/mL) | 0.3 ± 0.1 % | 10 s | 1.5 µM (≈ 4.27 µg/mL) | 1.5 µM (≈ 4.27 µg/mL) | 5.7 µM (≈ 16.2 µg/mL) | – | – | – | – | – | –
2 | FLIGKAIKRKFCLRSVWNA-NH2 [pept_1545] | – | – | – | – | – | – | did not exert any inhibition of cell growth even after 48 h; also recorded: did not cause cell death | 98.7 ± 1.3% | >100 µM | 7.2 µM | – | –
3 | FVKILAKLVNYAKN [pept_970] | – | – | – | – | – | – | strong cytotoxicity comparable to melittin | 2.7 ± 2.1 % | >100 µM | 19.8 µM | >100 µM | –
4 | IGRHFKRRNSIWGICWF [pept_1303] | – | – | – | – | – | – | reduced the cell viability to a lesser but still severe degree | 25.1 ± 8.3 % | >100 µM | 14.8 µM | – | –
5 | IVKRFFRISYKLQSLKIIKGKRTFT [pept_84] | – | – | – | – | – | – | reduced the cell viability to a lesser but still severe degree | 11.2 ± 7.4 % | >100 µM | 5.3 µM | 5.3 µM | –
6 | KKGKSFKQLHIIVHLVKSWLRTILTHI [pept_352] | – | – | – | – | – | – | strong cytotoxicity comparable to melittin | 0.2 ± 0.1 % | 19.9 µM | 10 µM | 10 µM | –
7 | VLIRGLIHMLRGG [pept_148] | – | – | – | – | – | – | did not exert any inhibition of cell growth even after 48 h; also recorded: did not cause cell death | 98.3 ± 0.9% | >100 µM | 22.4 µM | >100 µM | –
8 | guavanin 2 | – | – | – | – | – | – | – | – | – | – | – | 10 min
